The record followed here is patent US20120258974A1, “USE OF A2B ADENOSINE RECEPTOR ANTAGONISTS FOR TREATING HEART FAILURE AND ARRHYTHMIA IN POST-MYOCARDIAL INFARCTION PATIENTS” (GILEAD SCIENCES, INC., priority 2011, published 2012).

Each structure is given as a SMILES string. Entries after “also recorded” stand apart in the source; their conditions may differ.

For assay [1], the system named is acute myocardial infarction in the mouse (male ICR mice, coronary artery ligation). The assay can be described thus: Cardiac remodeling after coronary artery ligation in ICR mice (Example 3). It is filed as in vivo. How it is done:
Male ICR mice underwent coronary artery ligation or sham surgery (N=8-10 per group). A selective A2B antagonist, Compound A 4 mg/kg in a formulated dosing suspension, every 12 hours i.p., was given starting immediately after the surgery and continued for 14 days. Transthoracic echocardiography was performed prior to surgery and then 7, 14 and 28 days later. A subgroup of mice was sacrificed 72 hours after surgery and the activity of caspase-1, a key proinflammatory mediator, was measured in the cardiac tissue.

For another assay, the system named is caspase-1. The assay can be described thus: Caspase-1 activity in heart tissue 72 hours after surgery (Example 4). It is filed as in vivo, mouse. The settings on record: 4 mg/kg i.p. twice daily from coronary ligation. How it is done:
Adult out-bred male CD1 mice (8-12 weeks of age) were supplied by Harlan Sprague Dawley (Indianapolis, Ind.). The experiments were conducted under the guidelines of laboratory animals for biomedical research published by National Institutes of Health (No. 85-23, revised 1996). The study protocol was approved by the Virginia Commonwealth University Institutional Animal Care and Use Committee. Experimental AMI was induced by permanent coronary artery ligation in order to induce a large non-reperfused infarct involving approximately 30% of the left ventricle and leading to an ischemic dilated cardiomyopathy (Mezzaroma et al. Proc Natl Acad Sci 2011—in press and Abbate et al. Circulation 2008; 117:2670-83). […]
An additional subset of mice was sacrificed 72 hours after surgery (N=4-6 per treatment group). […] The tissue activity of caspase-1 was determined by cleavage of a fluorogenic substrate (CaspACE, Promega, Madison, Wis.) (Abbate et al. Circulation 2008; 117:2670-83). […] Fluorescence was measured after 60 minutes and was expressed as arbitrary fluorescence units produced by one microgram of sample per minute (fluorescence/μg/min) and calculated as fold change compared to the caspase-1 activity in homogenates of the hearts of sham-operated mice.

The test system of assay [2] is CD1 mice with experimental AMI (permanent coronary artery ligation). The assay can be described thus: Circulating levels of cytokines and soluble adhesion molecules at day 28 (Luminex, Example 4). The following applies: day 28 after surgery, vs vehicle. It is filed as in vivo, mouse. Here is the method: Adult out-bred male CD1 mice (8-12 weeks of age) were supplied by Harlan Sprague Dawley (Indianapolis, Ind.). The experiments were conducted under the guidelines of laboratory animals for biomedical research published by National Institutes of Health (No. 85-23, revised 1996). The study protocol was approved by the Virginia Commonwealth University Institutional Animal Care and Use Committee. Experimental AMI was induced by permanent coronary artery ligation in order to induce a large non-reperfused infarct involving approximately 30% of the left ventricle and leading to an ischemic dilated cardiomyopathy (Mezzaroma et al. Proc Natl Acad Sci 2011—in press and Abbate et al. Circulation 2008; 117:2670-83). Briefly, mice were orotracheally intubated under anesthesia (pentobarbital 50 to 70 mg/kg), placed in the right lateral decubitus position, then subjected to a left thoracotomy, pericardiectomy, and ligation of the proximal left coronary artery. The chest was closed and the animals were allowed to recover. The mice surviving surgery were randomly assigned to the different groups of treatment (N=6-15 per group). Sham operations were performed wherein animals underwent the same surgical procedure without coronary artery ligation (N=4-8 per group).
The A2B AdoR antagonist, Compound A, was obtained from Gilead Sciences, Foster City, Calif. Mice were randomly assigned to treatment with Compound A (4 mg/kg) or matching dose of vehicle administered intraperitoneally (final volume 0.13 mL) every 12 hours for 14 days starting immediately after coronary artery ligation surgery. An additional group of mice received a lower dose of Compound A (2 mg/kg) to explore a dose-response relationship. Two additional groups of mice received Compound A (4 mg/kg) starting 1 hour after surgery to simulate a clinical scenario of treatment delay. […] To simulate a clinically relevant scenario in which drug treatment may occur with some delay after AMI, this example compared treatment with Compound A without delay with groups in which the A2B AdoR antagonist was given with 1 hour of delay.
The plasma concentrations of IL-1β and […], Tumor Necrosis Factor-α (TNF-α) and soluble adhesion molecules (E-selectin, Intercellular adhesion molecule-1 [ICAM-1] and vascular cellular adhesion molecule [VCAM]), that are induced by IL-1β, were determined at day 28 after surgery using Luminex kits obtained from Millipore (Billerica, Mass.) according to the manufacturer's instructions. A blood sample was obtained via a direct cardiac puncture immediately prior to killing the animals.

The mark [3] stands for this setting: echocardiography, 4 mg/kg i.p. every 12 hours for 14 days, vs vehicle.

Take `CCCn1c(=O)c2[nH]c(-c3cnn(Cc4cccc(C(F)(F)F)c4)c3)nc2n(CC)c1=O` [Compound A, 3-ethyl-1-propyl-8-(1-(3-(trifluoromethyl)benzyl)-1H-pyrazol-4-yl)-1H-purine-2,6(3H,7H)-dione]: the “mice that died during the 4 weeks post-surgery” value in assay [1] (4 mg/kg i.p. every 12 hours for 14 days, vehicle 42%) is 25%. Besides, in assay [1] (72 hours after surgery, 4 mg/kg i.p. every 12 hours, vs vehicle), the “caspase-1 activity in the cardiac tissue” value was “significantly reduced”. Moreover, in assay [1] (setting [3]), the LV ejection fraction entry was “increased”, the end-diastolic diameter entry is recorded as “significantly reduced” and the myocardial performance index entry is recorded as “significantly reduced”. For the same molecule, the “caspase-1 activation / activity in the heart during AMI” value in the assay with caspase-1 was “prevented; also recorded: nearly complete reduction”. In assay [2], the E-selectin plasma level entry is “significantly reduced”, the ICAM-1 plasma level result was “significantly reduced”, the IL-6 plasma level entry is on record as “significantly reduced” and the TNF-α plasma level result is reported as “significantly reduced”. Moreover, the VCAM plasma level result in assay [2] is recorded as “significantly reduced”.
